Key:
Assay in all cases: relative viability (nuclei count vs DMSO), 5 days (fraction); higher = more cells survive
[1] = compound: C1CC1C(=O)NC2=NNC3=C2C=CC(=C3)C4=CC(=CC=C4)C(=O)NC5CC5 [XMD13-2] + CC(=O)Nc1cccc(-n2c(=O)n(C3CC3)c(=O)c3c(Nc4ccc(I)cc4F)n(C)c(=O)c(C)c32)c1 [Trametinib] (partner 0.02 µM)
In short: (§1)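 The day after seeding in 1536-well plates, lung cancer cell lines were treated by pin tool with a single drug, or with a fixed anchor-drug dose together with five library-drug doses (not always all listed) in √10 steps. After 5 days, a combined fix-and-stain solution (final 0.05% Triton X-100, 1% formaldehyde, 1 ug/ml Hoechst) was added. Nuclei counted on 4× images gave relative viability as treated counts over vehicle counts, reported as the median of duplicate plates.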

[2] = compound: Cc1ccc(C(=O)Nc2cccc(C(F)(F)F)c2)cc1Nc1cncc(C(N)=O)c1 [ALW-II-49-7] + C[C@]1(O)C[C@@H](c2nc(-c3ccc4ccc(-c5ccccc5)nc4c3)c3c(N)nccn32)C1 [Linsitinib] (partner 1 µM)
In short: as §1

[3] = compound: Cc1nc(Nc2ncc(C(=O)Nc3c(C)cccc3Cl)s2)cc(N2CCN(CCO)CC2)n1 [Dasatinib] + COc1cc2c(Oc3ccc(NC(=O)C4(C(=O)Nc5ccc(F)cc5)CC4)cc3F)ccnc2cc1OCCCN1CCOCC1 [Foretinib] (partner 0.25 µM)
In short: as §1

[4] = compound: Cc1nc(Nc2ncc(C(=O)Nc3c(C)cccc3Cl)s2)cc(N2CCN(CCO)CC2)n1 [Dasatinib] + O=C(CCCCCCC(=O)Nc1ccccc1)NO [Vorinostat] (partner 1 µM)
In short: as §1

Cell Line | relative viability ([1]; first compound 0.05 µM) | relative viability ([1]; first compound 0.1581 µM) | relative viability ([1]; first compound 0.5 µM) | relative viability ([1]; first compound 1.581 µM) | relative viability ([1]; first compound 5 µM) | relative viability ([2]; first compound 0.08 µM) | relative viability ([2]; first compound 0.253 µM) | relative viability ([2]; first compound 0.8 µM) | relative viability ([2]; first compound 2.53 µM) | relative viability ([2]; first compound 8 µM) | relative viability ([3]; first compound 0.005 µM) | relative viability ([3]; first compound 0.01581 µM) | relative viability ([3]; first compound 0.05 µM) | relative viability ([3]; first compound 0.1581 µM) | relative viability ([3]; first compound 0.5 µM) | relative viability ([4]; first compound 0.005 µM) | relative viability ([4]; first compound 0.01581 µM) | relative viability ([4]; first compound 0.05 µM) | relative viability ([4]; first compound 0.1581 µM) | relative viability ([4]; first compound 0.5 µM)
NCI-H596 | 0.826 | 0.857 | 0.965 | 0.954 | 0.798 | 1.1 | 1.08 | 1.11 | 1.06 | 1.1 | 0.688 | 0.66 | 0.521 | 0.376 | 0.291 | 0.59 | 0.384 | 0.412 | 0.313 | 0.322
HARA | 0.667 | 0.948 | 1.16 | 0.776 | 0.674 | 0.914 | 0.77 | 0.929 | 0.968 | 1.02 | 0.826 | 0.504 | 0.541 | 0.207 | 0.136 | 0.508 | 0.474 | 0.438 | 0.272 | 0.274
NCI-H2126 | 0.571 | 0.55 | 0.588 | 0.561 | 0.531 | 0.656 | 0.733 | 0.746 | 0.7 | 0.717 | 1.18 | 0.799 | 1.2 | 0.852 | 0.425 | 0.796 | 0.597 | 0.755 | 0.521 | 0.312
HCC-827 | 0.611 | 0.502 | 0.528 | 0.49 | 0.473 | 0.94 | 1.06 | 0.962 | 0.981 | 1.08 | 1.06 | 0.898 | 0.748 | 0.288 | 0.0947 | 0.787 | 0.744 | 0.742 | 0.615 | 0.157
NCI-H650 | 1.37 | 1.02 | 1.05 | 0.917 | 0.991 | 0.836 | 0.793 | 0.941 | 0.811 | 0.54 | 1.02 | 0.875 | 1.01 | 0.759 | 0.475 | 0.413 | 0.564 | 0.381 | 0.384 | 0.287
BEN | 1.11 | 1 | 1.21 | 0.991 | 1.07 | 0.69 | 0.865 | 0.99 | – | 0.936 | 0.682 | 0.513 | 0.35 | 0.366 | 0.291 | 0.577 | 0.445 | 0.417 | 0.371 | 0.368
NCI-H23 | 0.358 | 0.432 | 0.438 | 0.371 | 0.353 | 0.56 | 0.55 | 0.68 | 0.591 | 0.618 | 0.864 | 0.649 | 0.676 | 0.457 | 0.484 | 0.519 | 0.567 | 0.512 | 0.349 | 0.314
NCI-H1975 | 0.27 | 0.327 | 0.375 | 0.358 | 0.382 | 1.01 | 1 | 0.892 | 0.863 | 0.956 | 0.918 | 0.817 | 0.722 | 0.439 | 0.225 | 0.668 | 0.613 | 0.654 | 0.356 | 0.299
COR-L 105 | 0.423 | 0.466 | 0.432 | 0.476 | 0.393 | 0.884 | 0.848 | 0.824 | 0.745 | 0.752 | 0.786 | 0.955 | 0.64 | 0.377 | 0.264 | 0.891 | 0.58 | 0.683 | 0.445 | 0.363
LK-2 | 1.1 | 0.785 | 0.779 | 0.583 | 0.571 | 0.546 | 0.722 | 0.399 | – | 0.654 | 1.08 | 0.967 | 0.656 | 0.588 | 0.304 | 0.314 | 0.288 | 0.21 | 0.19 | 0.148
EKVX | 0.383 | 0.341 | 0.248 | – | 0.299 | 0.972 | 0.91 | 1.05 | 0.699 | 0.815 | 0.757 | 0.84 | 0.753 | 0.455 | 0.135 | 0.725 | 0.642 | 0.6 | 0.355 | 0.267
NCI-H2009 | 0.344 | 0.271 | 0.29 | 0.307 | 0.264 | 1.21 | 1.12 | 1.09 | 1.02 | 1 | 1.15 | 0.984 | 0.925 | 0.882 | 0.216 | 0.75 | 0.681 | 0.762 | 0.426 | 0.133
NCI-H838 | 0.552 | 0.569 | 0.576 | 0.557 | 0.552 | 1.06 | 1.08 | 1.06 | 1.14 | 1.15 | 0.679 | 0.654 | 0.552 | 0.313 | 0.236 | 0.678 | 0.632 | 0.584 | 0.422 | 0.348
NCI-H2085 | 0.62 | 0.568 | 0.472 | 0.5 | 0.514 | 0.669 | 0.866 | 0.843 | 0.84 | 0.942 | 0.855 | 0.783 | 0.338 | 0.198 | 0.173 | 0.831 | 0.632 | 0.567 | 0.259 | 0.202

From the supplement of paper PMC10307832
